The numbers were not newly measured in the CATMoS acute toxicity set (Mansouri et al. 2021), which cites them from elsewhere.

Values joined by “and” are separate entries in the source; they are usually repeats but may differ in a detail not shown here. Equal entries are not always repeated.

A short description of this series: rat acute oral toxicity. To be noted: in vivo.
What is called LD50 is the dose expected to kill half of the subjects tested. Take `O=NN1CCSC1`: the LD50 is 1950 mg/kg. On to `Cc1ccc(N(C)C)cc1`, for which the LD50 was 1650 mg/kg. For `CN(C)CCC(O)(c1ccccc1)c1ccccc1Cl` (stereo not given), the LD50 is 350 mg/kg.

Turning to `CCCOC(C(=O)OC1CCN(C)CC1)(c1ccccc1)c1ccccc1`, the LD50 was 2250 mg/kg. For `CC[C@H](OC(C)=O)C(C[C@H](C)N(C)C)(c1ccccc1)c1ccccc1`, the LD50 was 29 mg/kg. Regarding `CSC`, the LD50 was 3300 mg/kg. As to `CC1(C)COC(c2ccccc2)CN1` (stereo not given), the LD50 was 450 mg/kg and 480 mg/kg. With `CCCCNC(=O)OCC(C)(CCC)COC(N)=O` (stereo not given), the LD50 was 1040 mg/kg. As to `O=CCC1CC2CC1C1CCCC21` (stereo not given), the LD50 is 500 mg/kg. As for `CC(=O)SCC(=O)N=c1[nH]c2ccccc2s1`, the LD50 was 400 mg/kg. For `CN(C)CCC=C(c1ccccc1)c1ccc(C(F)(F)F)cc1`, the LD50 is 1000 mg/kg.

On to `Nc1ccc(F)c(F)c1`, for which the LD50 is 340 mg/kg. As to `CCCCCOC(CBr)c1ccc(C(C)C)cc1` (stereo not given), the LD50 was 250 mg/kg. For the compound `CCOP(=O)(OCC)N(SN(C)C(=O)ON=C(C)SC)C(C)C`, the LD50 was 100 mg/kg.

Regarding `CCOc1ccc(/C=C2\NCCc3cc(OCC)c(OCC)cc32)cc1OCC`, the LD50 is 540 mg/kg. As for `S=C1NCCNC(=S)S1`, the LD50 is 240 mg/kg.

`Clc1cccc(Cl)c1Nc1ncccn1`: the LD50 is 4720 mg/kg. With `CC1(C(=O)O)CC=CCC1` (stereo not given), the LD50 was 2140 mg/kg. As for `ClC(Cl)(Cl)CC1CO1` (stereo not given), the LD50 was 1500 mg/kg. As to `CC1CCC(=O)O1` (stereo not given), the LD50 is 8800 mg/kg.

As for `O=S(=O)(O)CO`, the 50% lethal dose (LD50) was 3200 mg/kg. As to `CCN(CC)C(=O)c1cccc(OC)c1O`, the LD50 is 2080 mg/kg. On to `Clc1cnn(CCCCN2CCN(c3ncccn3)CC2)c1`, for which the LD50 is 374 mg/kg. Regarding `C=C(C)C(=O)OC[Si]12OCCN(CCO1)CCO2`, the LD50 is 7950 mg/kg. As for `CSc1ccc(O)cc1C`, the LD50 was 3400 mg/kg.

Consider `CC=Cc1ccccc1`, for which the LD50 is 3600 mg/kg. As to `CC(=O)c1cc2cccc(OCC(O)CNC(C)C)c2o1` (stereo not given), the 50% lethal dose (LD50) was 922 mg/kg. Take `CCC(C(=O)OCCOCCN(CC)CC)c1ccccc1` (stereo not given): the LD50 was 4160 mg/kg. In the case of `CCNc1nc(NC(C)(C)C)nc(OC)n1`, the LD50 is 433 mg/kg. Regarding `CC(NCCO)c1ccccc1` (stereo not given), the LD50 was 2830 mg/kg.

Consider `c1ccc(P(c2ccccc2)c2ccccc2)cc1`, for which the LD50 was 700 mg/kg. In the case of `Cl[Si](Cl)(Cl)C1CC=CCC1` (stereo not given), the LD50 was 2830 mg/kg. Consider `CC(=O)O[C@@H]1C[C@]2(O)[C@H](CC[C@]3(C)[C@@H](c4ccc(=O)oc4)CC[C@@]32O)[C@@]2(C)CC[C@H](O[C@@H]3O[C@H](CO)[C@@H](O)[C@H](O)[C@H]3O)C=C12`, for which the LD50 was 0.43 mg/kg. Consider `CNC(=S)NNc1cc(C(F)(F)F)cc(C(F)(F)F)c1`, for which the LD50 was 414 mg/kg.

On to `Nc1nc(N)c2nc(-c3ccccc3)c(N)nc2n1`, for which the LD50 was 400 mg/kg. With `CC(C)(C)C(=O)CCc1ccc(Cl)cc1`, the LD50 was 3140 mg/kg. `CCCCOC(=O)/C=C/C(=O)OCCCC`: the LD50 is 8530 mg/kg. On to `c1ccc([C@H]2CN3CCSC3=N2)cc1`, for which the LD50 was 480 mg/kg.

Regarding `CNC(=O)Oc1cc(C)cc(C(C)C)c1`, the LD50 was 35 mg/kg. Regarding `COc1ccc(C(N)=O)cc1C(=O)NCc1cccnc1`, the LD50 was 1720 mg/kg.

For the compound `CCCNC(=O)OCC(O)C1COc2ccccc2O1` (stereo not given), the LD50 was 1500 mg/kg. For the compound `c1ccc(C2(c3ccccc3)CC2C2=NCCN2)cc1` (stereo not given), the LD50 is 359 mg/kg. On to `CCc1c(Cl)ccc(O)c1Cl`, for which the LD50 was 2260 mg/kg.

`Cc1ncc(CO)c(C(=O)O)c1O`: the LD50 is 7500 mg/kg.

Take `CCC[C@@H]1C[C@@H](C(=O)N[C@@H]([C@H]2O[C@H](SC)[C@H](O)[C@@H](O)[C@H]2O)[C@H](C)Cl)N(C)C1`: the LD50 is 2620 mg/kg and 2190 mg/kg. `C#CCc1cc(COC(=O)C2C(C=C(C)C)C2(C)C)c(C)o1` (stereo not given): the LD50 was 14000 mg/kg. `CCCCCCCCCCOC(=O)Cc1ccc(N(CCCl)CCCl)cc1`: the LD50 was 150 mg/kg. On to `Clc1sc(Cl)c(Cl)c1Cl`, for which the LD50 was 70 mg/kg. Regarding `Cn1nc(-c2ccccc2)c2conc2c1=O`, the LD50 was 1000 mg/kg. On to `CCOc1ccccc1OS(=O)(=O)NC(O)=Nc1nc(OC)cc(OC)n1`, for which the LD50 was 2910 mg/kg. For `CC[C@H](C)N`, the LD50 is 380 mg/kg.

As for `O=C(Nc1cc(Cl)cc(Cl)c1O)c1c(O)c(Cl)cc(Cl)c1Cl`, the LD50 is 1000 mg/kg. Regarding `O=[N+]([O-])c1ccccc1O`, the LD50 was 334 mg/kg. Consider `COC(=O)c1ccc(N=NN(C)C)cc1`, for which the LD50 is 52 mg/kg. Consider `CC(=CC(O)(C(F)(F)F)C(F)(F)F)CC(O)(C(F)(F)F)C(F)(F)F`, for which the LD50 was 18 mg/kg. As to `O=C(Nc1cc(Cl)ccc1Cl)c1cc(Cl)cc(-c2ccccc2)c1O`, the LD50 is 6310 mg/kg.

For the compound `FC(F)(F)C(F)(F)C(F)(F)C(F)(F)C(F)(F)C(F)(F)C(F)(F)C[n+]1ccccc1`, the LD50 is 1160 mg/kg. As to `CC1COC(C(Cl)(Cl)Cl)O1` (stereo not given), the LD50 was 380 mg/kg. Consider `CCSC(SCC)c1ccccc1OC(=O)NC`, for which the LD50 was 500 mg/kg.

For `CCOP(=S)(OCC)Oc1cnn(C)c(=O)c1OC`, the LD50 is 2.5 mg/kg.
